Assay results as given in PubChem BioAssay (NCI).
In brackets after ≈: the same amount, converted by molar mass. Several values for one entry are separate records, joined by “and”; a condition that tells them apart may be missing. Equal values may be shown once.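 Growth conditions: 96-well plates. Treatment: test compound, 48 hours, 5 concentrations. Analysis: linear interpolation between bracketing concentrations; unreached endpoints set to highest concentration. Here, GI50 denotes the concentration required for 50% inhibition of growth. Definition used: TGI = concentration required for complete inhibition of growth.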 Activity calls are given as the source filed them. No stated cut-off is given here; in the data, active means GI50 below about 0.43 µM; inactive means the rest.

How the values were obtained:
Test in all cases: NCI tumour cell line growth inhibition, 48 h
[1] = tested on: DMS 273 small cell lung
[2] = tested on: DLD-1 colon
[3] = tested on: KM20L2 colon
[4] = tested on: SNB-78 CNS
[5] = tested on: M19-MEL melanoma
[6] = tested on: DMS 114 small cell lung
[7] = tested on: XF 498 CNS
[8] = tested on: LXFL 529 NSCLC

| Compound | TGI [1] | TGI [2] | TGI [3] [µM] | TGI [4] | TGI [5] | TGI [6] [µM] | TGI [7] [µM] | TGI [8] [µM] | GI50 [1] [µg/mL] | GI50 [2] [µg/mL] | outcome [3] | GI50 [4] [µg/mL] | GI50 [5] [µg/mL] | outcome [7] | outcome [8] |
| --- | --- | --- | --- | --- | --- | --- | --- | --- | --- | --- | --- | --- | --- | --- | --- |
| N#Cc1c([N+](=O)[O-])cc(C(F)(F)F)cc1[N+](=O)[O-] | 16.8 µM | 16.7 µM | 44.2 | 4.15 µM | 5.27 µM | 3.93 | 3.54 | 4.42 |  |  |  |  |  |  |  |
| CC(=O)OC1COC(N2C(=O)C(=O)c3c(C)cc(Cl)nc32)C(OC(C)=O)C1OC(C)=O (stereo not drawn) | > 100 µM | > 100 µM | > 100 | > 100 µM | > 100 µM | > 100 | > 100 | > 100 |  |  |  |  |  |  |  |
| C[N+](C)(C)CC(=O)N/N=C(/C=C/c1ccccc1)CC1OC(=O)c2ccccc21 (stereo not drawn) | > 100 µM | > 100 µM | > 100 | > 100 µM | > 100 µM | > 100 | > 100 | > 100 |  |  |  |  |  |  |  |
| O=C(c1ccccc1)c1nnn(Cc2cccc(Cl)c2)c1C(=O)c1ccccc1 | > 100 µM | > 100 µM | > 100 | > 100 µM | > 100 µM | > 100 | > 100 | > 100 |  |  |  |  |  |  |  |
| [N-]=[N+]=Nc1ccc(S(=O)(=O)Oc2cc(OS(=O)(=O)c3ccc(N=[N+]=[N-])cc3)cc(OS(=O)(=O)c3ccc(N=[N+]=[N-])cc3)c2)cc1 | > 100 µM | > 100 µM | > 100 | > 100 µM | > 100 µM | > 100 | > 100 | > 100 |  |  |  |  |  |  |  |
| CC(=O)OCC1OC(n2cc(F)c(=O)[nH]c2=O)C(OC(C)=O)C1OC(C)=O (stereo not drawn) |  | > 100 µM | > 100 | > 100 µM | > 100 µM | > 100 | > 100 | > 100 |  |  |  |  |  |  |  |
| CCN(CC)CCN(C)CC(C)(C)C(=O)/C=C/c1ccccc1 | 26.1 µM | 22.2 µM | 23.1 |  | 24.3 µM | 21.4 | 24.8 | 24.7 |  |  |  |  |  |  |  |
| C=CCCc1cc(OC)ccc1CN(C)C(C)(C)CO | > 100 µM | > 100 µM | > 100 | > 100 µM | > 100 µM | > 100 |  |  |  |  |  |  |  |  |  |
| CN1CCC(O)C(CNC23CC4CC(CC(C4)C2)C3)C1 (stereo not drawn) | > 100 µM | > 100 µM | > 100 | > 100 µM | > 100 µM | > 100 | > 100 | > 100 |  |  |  |  |  |  |  |
| Cc1c(C(=O)/C=C/c2ccco2)[n+](=O)c2ccccc2n1[O-] | > 100 µM | > 100 µM | > 100 | > 100 µM | > 100 µM | > 100 | > 100 | > 100 |  |  |  |  |  |  |  |
| CC(C)c1ccc2c(c1)CCC1C(C)(C)[C@@H](O)CC[C@]21C (stereo partly drawn) | > 100 µM | > 100 µM | 44.4 | > 100 µM | 44.2 µM | > 100 |  | > 100 |  |  |  |  |  |  |  |
| CC(=O)NNc1nc(C)c(C(/C=C/c2ccc(/C=C/C(=N\NC(=O)c3ccncc3)c3sc(NNC(C)=O)nc3C)cc2)=N/NC(=O)c2ccncc2)s1 |  | > 100 µM | > 100 | > 100 µM | > 100 µM | > 100 |  | > 100 |  |  |  |  |  |  |  |
| CCCCNC(=S)Nn1c(-c2ccccc2)nc2ccccc2c1=O | > 100 µM | > 100 µM |  |  | > 100 µM | > 100 |  | > 100 |  |  |  |  |  |  |  |
| COc1ccc(C(=O)O/N=C2\CCCC\C2=C/c2ccccc2)cc1 | > 100 µM | > 100 µM | > 100 | > 100 µM | > 100 µM | > 100 | 89.2 | > 100 |  |  |  |  |  |  |  |
| O=c1[nH]nc(-c2ccccc2)c(-c2ccccc2)c1-n1nc(-c2ccccc2)c2ccccc2c1=O | > 100 µM | > 100 µM |  | > 100 µM | > 100 µM |  |  | > 100 |  |  |  |  |  |  |  |
| O=C(Nc1ccc(Cl)cc1)NS(=O)(=O)c1ccc2c(c1)CCC2 | > 100 µM and 39.6 µg/mL | > 100 µM and 41.1 µg/mL | > 100 | > 100 µM and 51 µg/mL | > 100 µM and 58.5 µg/mL | > 100 | > 100 | > 100 | 17.6 (≈ 50.3 µM) | 19.5 (≈ 55.5 µM) | inactive | 8.37 (≈ 23.9 µM) | 29.8 (≈ 85.1 µM) | inactive | inactive |
| CN(C)C1(C#N)CCC2(CC1)OCCO2 | > 100 µM |  | > 100 | > 100 µM | > 100 µM |  |  |  |  |  |  |  |  |  |  |
| C=C1C(=O)OC2C1C(OC(=O)/C(=C/C)COC(C)=O)CC1(CO1)C1C(OC(=O)/C(=C/C)CO)C=C(C)C21 (stereo not drawn) | 3.68 µM | 4.14 µM | 11.2 | 6.41 µM | 4.3 µM | 4.46 | 3.78 | 1.66 |  |  |  |  |  |  |  |
| O=C(Nc1nc2ncn(CCOC(=O)c3ccccc3)c2c(=O)[nH]1)c1ccccc1 |  |  | 83.3 | > 100 µM |  |  | 55.7 | > 100 |  |  |  |  |  |  |  |
